Source: US11992497B2 (priority 2021, dated 2024)

Assays:
UGT1A3 = target: T1, UGT1A3 (Homo sapiens, UniProt P35503); test: UGT reaction phenotyping, recombinant Supersomes; conditions: recombinant enzyme, pH 7.4
T1 sequence (P35503 29-534): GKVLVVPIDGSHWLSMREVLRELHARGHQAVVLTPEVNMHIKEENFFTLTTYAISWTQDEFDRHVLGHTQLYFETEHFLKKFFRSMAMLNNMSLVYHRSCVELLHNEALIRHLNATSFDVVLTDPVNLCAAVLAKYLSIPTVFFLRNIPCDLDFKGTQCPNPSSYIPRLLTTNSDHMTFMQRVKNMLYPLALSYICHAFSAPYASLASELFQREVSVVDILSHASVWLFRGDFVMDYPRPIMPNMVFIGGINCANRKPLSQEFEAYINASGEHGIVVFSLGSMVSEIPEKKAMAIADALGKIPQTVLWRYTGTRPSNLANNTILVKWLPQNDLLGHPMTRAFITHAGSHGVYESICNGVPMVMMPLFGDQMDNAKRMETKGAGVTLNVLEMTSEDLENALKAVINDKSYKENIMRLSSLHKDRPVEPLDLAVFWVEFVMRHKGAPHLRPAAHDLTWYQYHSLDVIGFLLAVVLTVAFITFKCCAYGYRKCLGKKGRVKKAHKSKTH
Description: (§1) Experimental Summary: UGT Reaction Phenotyping (7 Isoforms).
(§2) Experimental Procedure: cDNA expressed human UGT enzyme preparations (Supersomes) supplied by BD Biosciences were obtained and stored at −80° C. prior to use. The specific isoforms were chosen by the performing laboratory based on published guidelines. They are considered the clinically relevant of the UGT isoforms (E. Kasteel et al. Human variability in isoform-specific UDP-glucuronosyltransferases: markers of acute and chronic exposure, polymorphisms and uncertainty factors. Arch Toxicol. 2020; 94(8): 2637-2661)
(§3) Supersomes in 0.1 M Tris buffer pH 7.4, alamethicin (44.6 μg/mL) and test compound (final concentration of 5 μM; final DMSO concentration ≤0.1%) were pre-incubated at 37° C. prior to the addition of UDGPA (final concentration 2 mM) to initiate the reaction. Incubations were also performed using control Supersomes (no UGT enzymes present) to reveal any non-enzymatic degradation. Compounds known to be metabolized specifically by each UGT isoform were used as control compounds (7-hydroxy-4-trifluoromethylcoumarin, all but UGT1A4, or trifluoperazine for UGT1A4).
(§4) CBG or Compound 1 were incubated in duplicate for 0, 10, 20, 40 and 60 min with each isoform. The reactions were stopped by the addition of methanol containing an analytical internal standard at the time points specified in the table above. Stopped reactions were kept on ice for at least ten minutes and the samples were centrifuged to remove precipitated protein. Supernatants were analyzed by LC-MS/MS methodology developed by the performing laboratory to quantitate the parent remaining.
(§5) The change in CBG concentration were used to calculate the Half life (t1/2 in min) and the intrinsic clearance ([…]) as shown in the following table (S. C, Khojasteh et.al., Drug Metabolism and Pharmacokinetics Quick Guide, Springer, NY, 2011), Intrinsic Clearance (CIint) is a measure of the ability of hepatocytes to eliminate drug irrespective other factors such as blood flow or protein binding. The calculations were the same as those used in Example 3A.

UGT1A6 = target: T2, UGT1A6 (Homo sapiens, UniProt P19224); test: UGT reaction phenotyping, recombinant Supersomes; conditions: recombinant enzyme, pH 7.4
T2 sequence (P19224 27-532): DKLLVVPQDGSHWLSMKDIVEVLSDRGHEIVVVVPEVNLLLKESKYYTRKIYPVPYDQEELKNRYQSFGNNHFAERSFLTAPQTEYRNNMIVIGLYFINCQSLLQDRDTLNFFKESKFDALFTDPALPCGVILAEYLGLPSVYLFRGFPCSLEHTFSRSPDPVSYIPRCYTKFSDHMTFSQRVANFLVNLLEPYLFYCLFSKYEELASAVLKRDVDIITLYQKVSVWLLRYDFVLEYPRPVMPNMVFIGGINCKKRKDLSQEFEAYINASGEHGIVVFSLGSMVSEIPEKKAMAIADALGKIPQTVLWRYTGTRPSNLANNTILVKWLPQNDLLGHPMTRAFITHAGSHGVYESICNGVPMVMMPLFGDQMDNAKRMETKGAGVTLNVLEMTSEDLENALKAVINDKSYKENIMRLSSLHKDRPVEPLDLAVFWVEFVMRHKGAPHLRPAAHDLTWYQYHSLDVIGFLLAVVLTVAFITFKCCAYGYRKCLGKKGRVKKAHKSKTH
Description: as §1, §2, §3, §4, §5

[1] = system: indomethacin induced intestinal injury; test: Indomethacin-induced Crohn's disease in rats; type: in vivo; conditions: for small intestine weight compared to vehicle: all three treatment groups (50, 200, 800 mg/kg PO, days 0-3); for body weight change (prevention of weight loss): all treatment groups (50, 200, 800 mg/kg PO, days 0-3), vs dexamethasone (Compound 2: also vehicle)
Description: The objective of this study was to determine the efficacy of Compound 1 and Compound 2 in a model of Crohn's disease (indomethacin induced intestinal injury) in rats.
The study design was identical for Compound 1 and Compound 2. On study day −3, rats were weighed and distributed into treatment groups based on body weight.
On study day 0, treatment was initiated and continue as indicated in the Study Design Tables below. Groups 2-6 received a subcutaneous injection of indomethacin (9 mg/kg, 1 ml/kg) in 5% sodium bicarbonate (Sterile Water). On study day 1, Groups 2-6 received a second subcutaneous injection of indomethacin (8 mg/kg, 1 ml/kg) in 5% sodium bicarbonate (Sterile Water). Live phase sample & data collection specifics are outlined below. On study day 4, animals will be euthanized, a section of the small intestine will be removed and weighed. Further necropsy sample and data collection is specified below. Overall efficacy of test articles will be based on body weight, small intestine weight (10 cm), small intestine gross score, and histopathology
At necropsy, the small intestines were evaluated visually and given a gross score according to the following criteria: ⋅0=Normal. 0.5=Very Minimal thickening, multifocal in area at risk. 1=Minimal thickening, fairly diffuse in area at risk. 2=Mild to moderate small intestinal/mesenteric thickening throughout area at risk. 3=Moderate thickening with 1 or more definite adhesions that would be easy to separate. 4=Marked thickening with numerous hard to separate adhesions. 5=Severe intestinal lesion resulting in death.
Preserved 9-cm sections of small intestine were trimmed into 6 transverse sections collected at approximately equal intervals along the […] of the intestine, without bias toward lesion presence or absence. These trimmed sections were processed through graded alcohols and a clearing agent, infiltrated and embedded in paraffin, sectioned, and stained with hematoxylin and eosin (H&E).
Small intestine sections from all animals were examined microscopically by a board-certified veterinary pathologist, and observations were entered into a computer-assisted data retrieval system. Cross sections of small intestine were scored for inflammation and necrosis using the following criteria:
The area at risk for development of this lesion is generally approximately 30% of the total area of a cross section of small intestine where the mesentery attaches.
Inflammation is localized to the mesentery and intestinal area at risk for necrosis with slight extension on either side of it. […] In this case, inflammation is scored based on overall severity ranging from 0.5 (very minimal) to 5 (severe) without regard for the extent of necrosis. The mean score for necrosis and inflammation was calculated for each animal and these mean scores were then summed to arrive at a total score. Each section also has a measurement of total width of mucosal necrosis.

[2] = Compound 1 Group 5 (200 mg/kg PO)
[3] = Compound 1 Groups 4 and 5 (50, 200 mg/kg PO)

Compound: CCCCCc1cc(O)c(C/C=C(\C)CCC=C(C)C)c(O)c1 [CBG, cannabigerol]
- half-life at 1 µM (UGT1A3): 44.1 min
- microsomal CLint at 1 µM (UGT1A3): 31.4 µL/min/mg
- half-life at 1 µM (UGT1A6): 95 min
- microsomal CLint at 1 µM (UGT1A6): 14.6 µL/min/mg

Compound: CCCCCc1cc(O)c(C/C=C(\C)CCC=C(C)C)c(OC)c1 [Compound 1, (E)-2-(3,7-dimethylocta-2,6-dien-1-yl)-3-methoxy-5-pentylphenol]
- half-life at 1 µM (UGT1A3): 108 min
- microsomal CLint at 1 µM (UGT1A3): 12.8 µL/min/mg
- half-life at 1 µM (UGT1A6): > 240 min
- microsomal CLint at 1 µM (UGT1A6): < 2.89 µL/min/mg
- histopathology scores vs vehicle and dexamethasone [1, 2]: significantly lower
- necrosis width vs vehicle and dexamethasone [1, 2]: significantly lower
- Histopathology scores vs vehicle and positive control [1, 3]: trended lower
- necrosis width vs vehicle and positive control [1, 3]: trended lower
- small intestine gross score compared to vehicle ([1]; Group 4 (50 mg/kg PO)): trend in lower small intestine gross score
- small intestine gross score compared to vehicle ([1]; Groups 5-6 (200, 800 mg/kg PO)): significant reductions
- small intestine weight compared to vehicle [1]: significantly lower
- body weight change (prevention of weight loss) [1]: trended towards or had significant differences in preventing weight loss

Compound: CCCCCc1cc(OC)c(C/C=C(\C)CCC=C(C)C)c(OC)c1 [Compound 2, (E)-2-(3,7-dimethylocta-2,6-dien-1-yl)-1,3-dimethoxy-5-pentylbenzene]
- reduction of necrosis width, of vehicle ([1]; Compound 2 Group 5): 99%
- histopathology scores vs vehicle and dexamethasone ([1]; Compound 2 Group 5 & 6): significantly lower
- necrosis width vs vehicle and dexamethasone ([1]; Compound 2 Group 5 & 6): significantly lower
- reduction of necrosis width, of vehicle ([1]; Compound 2 Group 6): 96%
- Histopathology scores vs vehicle ([1]; Compound 2 Groups 4-6): lower than the vehicle
- necrosis width vs vehicle ([1]; Compound 2 Groups 4-6): lower than the vehicle
- small intestine gross score compared to vehicle ([1]; Group 4 (50 mg/kg PO)): trend in lower small intestine gross score
- small intestine gross score compared to vehicle ([1]; Groups 5-6 (200, 800 mg/kg PO)): significant reductions
- small intestine weight compared to vehicle [1]: significantly lower
- body weight change (prevention of weight loss) [1]: trended towards or had significant differences in preventing weight loss

Compound: O=c1cc(C(F)(F)F)c2ccc(O)cc2o1 [7-OH4trifluoromethylcoumarin, 7-hydroxy-4-trifluoromethylcoumarin]
- half-life at 1 µM (UGT1A3): 51.8 min
- microsomal CLint at 1 µM (UGT1A3): 26.8 µL/min/mg
- half-life at 1 µM (UGT1A6): 6.41 min
- microsomal CLint at 1 µM (UGT1A6): 216 µL/min/mg
